Measurements as given in publication PMC3914206.

Key:
[1] = target: T1, panel of 442 kinases (Homo sapiens, UniProt Q9UL54); format: binding; details: kinase TAOK2; compound concentration 10 µM
T1 construct: purchased KINOMEscan
T1 sequence (Q9UL54 1-1235): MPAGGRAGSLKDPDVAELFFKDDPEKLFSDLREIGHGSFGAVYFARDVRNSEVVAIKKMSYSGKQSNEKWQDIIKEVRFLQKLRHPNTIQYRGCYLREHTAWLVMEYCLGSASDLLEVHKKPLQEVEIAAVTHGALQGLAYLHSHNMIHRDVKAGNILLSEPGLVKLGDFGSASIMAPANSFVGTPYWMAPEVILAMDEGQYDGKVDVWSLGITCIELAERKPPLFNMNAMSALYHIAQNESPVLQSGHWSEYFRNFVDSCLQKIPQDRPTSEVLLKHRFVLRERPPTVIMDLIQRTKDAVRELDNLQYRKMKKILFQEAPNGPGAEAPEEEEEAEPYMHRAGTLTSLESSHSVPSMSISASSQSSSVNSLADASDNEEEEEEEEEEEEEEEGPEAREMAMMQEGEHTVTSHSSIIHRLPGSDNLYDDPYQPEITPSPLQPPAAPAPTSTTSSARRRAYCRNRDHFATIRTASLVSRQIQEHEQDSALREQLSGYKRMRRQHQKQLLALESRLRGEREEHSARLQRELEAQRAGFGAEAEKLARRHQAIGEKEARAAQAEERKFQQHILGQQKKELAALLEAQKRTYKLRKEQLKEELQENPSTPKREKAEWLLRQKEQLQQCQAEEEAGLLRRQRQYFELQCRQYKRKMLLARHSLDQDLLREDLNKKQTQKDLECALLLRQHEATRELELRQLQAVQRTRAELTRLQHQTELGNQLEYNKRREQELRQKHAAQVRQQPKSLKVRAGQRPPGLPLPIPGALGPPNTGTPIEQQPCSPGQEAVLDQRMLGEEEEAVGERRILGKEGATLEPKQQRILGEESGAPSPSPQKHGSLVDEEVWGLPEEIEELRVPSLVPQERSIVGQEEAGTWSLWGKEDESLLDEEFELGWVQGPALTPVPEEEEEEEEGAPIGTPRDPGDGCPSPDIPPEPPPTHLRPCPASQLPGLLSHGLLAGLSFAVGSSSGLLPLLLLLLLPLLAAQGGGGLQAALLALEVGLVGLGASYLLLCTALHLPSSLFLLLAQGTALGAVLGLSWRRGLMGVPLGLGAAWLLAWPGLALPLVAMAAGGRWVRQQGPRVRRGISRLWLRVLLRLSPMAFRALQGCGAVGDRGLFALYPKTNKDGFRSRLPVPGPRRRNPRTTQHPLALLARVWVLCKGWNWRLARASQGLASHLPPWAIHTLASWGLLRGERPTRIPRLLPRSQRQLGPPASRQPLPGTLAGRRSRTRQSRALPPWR
Excerpt: (§1) We assessed the selectivity of members of this scaffold using the KINOMEscan methodology across a near comprehensive panel of 442 kinases [[18,27]].

[2] = target: T2, panel of 442 kinases (Homo sapiens, UniProt Q9BWU1); format: binding; details: Compound Concentration 10 µM
T2 construct: purchased KINOMEscan
T2 sequence (Q9BWU1 whole entry): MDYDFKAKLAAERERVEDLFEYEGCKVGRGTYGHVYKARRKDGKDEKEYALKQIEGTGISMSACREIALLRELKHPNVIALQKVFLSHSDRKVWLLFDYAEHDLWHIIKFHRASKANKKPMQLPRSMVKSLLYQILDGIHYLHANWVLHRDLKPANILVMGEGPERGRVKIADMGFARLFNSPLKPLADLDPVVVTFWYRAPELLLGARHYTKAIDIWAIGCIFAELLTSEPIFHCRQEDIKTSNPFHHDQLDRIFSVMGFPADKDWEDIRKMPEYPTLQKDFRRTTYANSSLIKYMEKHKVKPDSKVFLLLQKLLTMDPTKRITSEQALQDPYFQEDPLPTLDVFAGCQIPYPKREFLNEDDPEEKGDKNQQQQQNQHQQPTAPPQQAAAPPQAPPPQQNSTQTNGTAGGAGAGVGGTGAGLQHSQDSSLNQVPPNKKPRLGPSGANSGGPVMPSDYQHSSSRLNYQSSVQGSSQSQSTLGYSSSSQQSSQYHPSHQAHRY
Excerpt: as §1

Row | SMILES | % Ctrl, TAOK2 [1] [% Ctrl] | KINOMEscan: CDK11 [2]
1 | COc1cc(C(=O)N2CCC(N3CCN(C)CC3)CC2)ccc1Nc1ncc2c(n1)N(C)c1ccccc1C(=O)N2C [15 (LRRK2-IN-1)] | 65 | 100
2 | COc1cc(C(=O)N2CCC(N3CCN(C)CC3)CC2)ccc1Nc1ncc2c(n1)N1CCc3cccc(c31)C(=O)N2C [Compound 24] | 100 | 96
3 | COc1cc(C(=O)N2CCC(N3CCN(C)CC3)CC2)ccc1Nc1ncc2c(n1)N(C1CCCC1)c1ccccc1C(=O)N2C [Compound 25, 11-cyclopentyl-2-((2-methoxy-4-(4-(4-methylpiperazin-1-yl)piperidine-1-carbonyl)phenyl)amino)-5-methyl-5H-benzo[e]pyrimido[5,4-b][1,4]diazepin-6(11H)-one] | 74 | 87
4 | CCOc1cc(C(=O)N2CCC(N3CCN(C)CC3)CC2)ccc1Nc1ncc2c(n1)N(C1CCCC1)c1ccccc1C(=O)N2C [Compound 26] | 78 | 100
